Data as given in publication PMC12748958 (Nature Communications, 2025).

Target: T1, PsiR-M2 (Agrobacterium fabrum, UniProt A9CH24, R109G/V134A)
T1 sequence (A9CH24 1-359 R109G/V134A): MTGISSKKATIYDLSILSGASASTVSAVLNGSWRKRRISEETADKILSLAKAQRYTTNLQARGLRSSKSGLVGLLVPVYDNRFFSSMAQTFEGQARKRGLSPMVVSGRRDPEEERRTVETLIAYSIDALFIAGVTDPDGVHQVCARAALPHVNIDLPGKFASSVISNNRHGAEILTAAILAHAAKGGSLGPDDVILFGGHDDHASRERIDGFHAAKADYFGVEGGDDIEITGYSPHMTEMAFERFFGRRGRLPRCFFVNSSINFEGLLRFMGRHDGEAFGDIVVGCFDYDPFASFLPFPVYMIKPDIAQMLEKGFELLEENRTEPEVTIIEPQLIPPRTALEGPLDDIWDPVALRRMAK
Test: microscale thermophoresis
Assay type: binding

## O=C(CO)[C@H](O)[C@H](O)[C@H](O)CO [D-allulose]
  microscale thermophoresis (MST) on purified protein: After purifying PsiR-WT, M2, and M4 from E. coli BL21(DE3) via His-tag affinity chromatography
